What was measured:
[1] = biological target: T1, mutated NLRX1 protein (D677A, F680A, F681A, E684A) (Homo sapiens, UniProt Q86UT6, D677A/E684A/F680A/F681A); assay: Surface plasmon resonance binding to NLRX1-Mutant
T1 construct: made in house; host or cells: Pichia pastoris (by 'similar methods')
Procedure: NLRX1 production and purification. Human NLRX1 (www.uniprot.org; UniProtKB—Q86UT6 (NLRX1 HUMAN)) was cloned into E. coli, amplified and transfected in Pichia pastoris. P. pastoris was plated onto adenine selective media. Stable transfected colonies were selected and grown within YPD broth at 30° C. for 24 hours, 240 RPM shaking. Starter culture was used to inoculate base media (1% yeast extract, 2% peptone, 1% sorbitol, 2% yeast nitrogen base) containing biotin and buffered with potassium phosphate. Inoculated base media was incubated for 48 hours at 30° C., 240 RPM. P. pastoris was then pelleted by centrifugation and resuspended in expression media (1% sorbitol, 2% yeast nitrogen base) containing biotin and buffered with potassium phosphate. Culture was induced daily for protein production through addition of methanol and incubated for a total of 4 days at 28° C., 240 RPM. After incubation, cells were pelleted by centrifugation and lysed by sonication. Recombinant NLRX1 protein was purified by fast protein liquid chromatography (AktaPrime) using immobilized metal affinity chromatography. Fractions of protein were eluted in 1 mL aliquots and evaluated for NLRX1 content. A mutated NLRX1 protein was generated using similar methods to disrupt binding within the predicted binding site through altering four residues to alanine (D677A, F680A, F681A, and E684A).
A Biacore T200 was used to evaluate binding to the NLRX1 protein. NLRX1-WT and NLRX1-Mutant were used as proteins to immobilize onto the CM5 sensor chip. NLRX1-WT was diluted in 10 mM sodium acetate buffer at pH 4.0 and immobilized onto the flow cell to a level of ˜3700 RU, using standard amine coupling chemistry. NLRX1-Mutant was diluted in 10 mM sodium acetate buffer at pH 4.0 and immobilized onto the flow cell to a level of ˜3100 RU, using standard amine coupling chemistry. 20 mM MOPS, 150 mM NaCl, 5 mM sodium acetate, 1 mM EDTA, 0.05% Tween-20, pH 8.0 buffer (Running buffer) was used as the immobilization running buffer. Based on the immobilized response values, theoretical Rmax values were calculated. […]

DSS model of colitis = DSS model of colitis (acute model of IBD); format: in vivo, mice
Procedure: Mice were given 8% (w/v) DSS in drinking water for seven days to induce disruption of the epithelial layer. At project initiation, mice were 8 weeks of age and began dosing 24 hours after being placed on 8% DSS. Mice were weighed and scored daily for symptoms of disease (diarrhea, rectal bleeding, rectal inflammation, overall behavior). Treatment administration. NX-13 was prepared within a 0.5% methylcellulose (12-15 cP) solution. Dosage used was 20 mg/kg delivered once daily. Mice were weighed on a weekly basis to update dosage formulation. Dosage was calculated based off mean body weights for each gender. Oral dosage was delivered by orogastric gavage of dosage in 0.2 mL volume. Colons were collected into RPMI/FBS buffer containing collagenase (300 U/mL) and DNase (50 U/mL) for digestion. Tissues were digested for 60 minutes under stirring at 37° C. Resultant cellular suspensions were filtered through 100 μm strainers, centrifuged (300×g, 8 min), and washed in fresh RPMI. Following filtration of the resulting single cell suspensions, immune cells were purified by Percoll gradient of cell-containing 40% Percoll overlayed onto 70% Percoll solution. After centrifugation, interphase was collected and washed to obtain enriched colonic lamina propria cell fractions. Cells were labeled with mixtures of extracellular (CD45, CD3, CD4, CD8, CD19, NK1.1, CD25, F4/80, CD11b, Gr1, CX3CR1, CD64) and intracellular (Tbet, RORγT, FOXP3, IFNγ, IL17, IL10) antibodies in a sequential live staining in 96-well plates. Data was acquired using a FACS Celesta flow cytometer with FACSDiva software. Total RNA from colon and cells was generated using the Qiagen RNeasy mini kit. cDNA was generated using the BioRad iScript cDNA synthesis kit. Standard curves were generated by serial dilution of purified product from a standard PCR reaction with Taq DNA polymerase followed by purification using the Qiagen MinElute PCR purification kit. Expression levels were obtained from quantitative real-time PCR with SybrGreen supermix on a BioRad CFX96 Thermal cycler followed by normalization to expression of β-actin.

[2] = test system: peripheral blood mononuclear cells (PBMCs) of Crohn's disease patients; assay: Ex vivo treatment of PBMCs of Crohn's disease patients, flow cytometry; format: cell-based, human
Procedure: Samples were obtained from male and female donors clinically categorized as having moderate to severe disease. Age and current medications were not used as exclusion criteria. Whole blood was collected into heparinized vacuum tubes. Whole blood was diluted 1:3 volumes with sterile phosphate buffered saline. LeucoSep (Greiner) were prepared by addition of Lymphocyte Separation Media followed by 15 second centrifugation at max speed. Diluted whole blood was added to LeucoSep tubes. After centrifugation (2000×g, 20 min), PBMCs were collected from the interphase by Pasteur pipette. Remaining red blood cells were lysed by hypotonic lysis and suspension was filtered through a […] cell strainer. PBMCs were washed and re-suspended in sterile cell culture media, RPMI containing 10% fetal bovine serum, 2.5% Hepes solution, 1% L-glutamine, 1% penicillin/streptomycin, 1% sodium pyruvate, and 1% essential amino acids (complete RPMI).
Target cells were incubated for 24 h in complete RPMI culture media at 37° C. Cells were incubated in the presence of NX-13 ranging in concentration from 1 nM to 100 nM. NX-13 stock solution was prepared at 100 mM in dimethyl sulfoxide (DMSO) and diluted to desired concentration in culture media. DMSO concentrations were adjusted to be equal across all doses and vehicle treatments. Six hours prior to assay, cells were stimulated with phorbol 12-myristate 13-acetate (PMA) and ionomycin to stimulate cellular activation. Cells were assayed for desired data at 24 h.
Prior to collection, cells were incubated BD GolgiStop (2 μL GolgiStop to 3 mL of total media) to allow intracellular accumulation of cytokines. Cells were live stained with extracellular (CD45, CD3, CD4, CD8, CD11b) and intracellular (FOXP3, IL-10, IL-4, IFNγ, TNFα) in a sequential manner. Data was acquired on a BD FACs Celesta and analyzed using FACSDiva. Non-viable and non-singlet cells were excluded from analysis. Data is presented as percentage of CD45+ cells or % viable, singlets.

[3] = day 7 of DSS challenge, qRT-PCR, normalized to beta-actin
[4] = oral 20 mg/kg, day 7 of DSS challenge, flow cytometry
[5] = PBMCs from Crohn's disease patients

T1 sequence (Q86UT6 87-975 D677A/F680A/F681A/E684A): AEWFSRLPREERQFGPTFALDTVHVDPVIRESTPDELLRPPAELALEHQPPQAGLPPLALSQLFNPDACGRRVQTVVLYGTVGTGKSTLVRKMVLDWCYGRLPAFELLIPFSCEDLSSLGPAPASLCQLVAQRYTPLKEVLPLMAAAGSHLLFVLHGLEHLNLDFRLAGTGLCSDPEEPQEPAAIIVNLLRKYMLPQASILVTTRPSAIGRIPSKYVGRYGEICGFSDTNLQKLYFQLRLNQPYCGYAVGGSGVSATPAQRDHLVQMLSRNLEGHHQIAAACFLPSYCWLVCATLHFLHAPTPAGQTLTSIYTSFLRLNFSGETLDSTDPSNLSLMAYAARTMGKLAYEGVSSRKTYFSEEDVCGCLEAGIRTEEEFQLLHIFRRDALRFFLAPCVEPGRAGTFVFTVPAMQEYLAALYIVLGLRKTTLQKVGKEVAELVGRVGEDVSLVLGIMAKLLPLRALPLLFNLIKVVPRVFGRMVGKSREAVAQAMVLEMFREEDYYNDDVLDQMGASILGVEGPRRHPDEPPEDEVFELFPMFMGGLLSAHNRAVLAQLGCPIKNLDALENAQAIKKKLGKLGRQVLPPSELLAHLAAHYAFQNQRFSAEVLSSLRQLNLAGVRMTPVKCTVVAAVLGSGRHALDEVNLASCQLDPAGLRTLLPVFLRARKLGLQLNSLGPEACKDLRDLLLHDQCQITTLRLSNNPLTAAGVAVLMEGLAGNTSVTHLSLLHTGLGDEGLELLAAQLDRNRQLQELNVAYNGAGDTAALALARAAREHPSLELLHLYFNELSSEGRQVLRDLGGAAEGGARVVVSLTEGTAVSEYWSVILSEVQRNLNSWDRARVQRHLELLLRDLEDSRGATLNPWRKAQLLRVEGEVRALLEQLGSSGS

Cc1cccc(Oc2cc(Oc3cccc(C)n3)cc(Oc3cccc(C)n3)c2)n1 [NX-13, 1,3,5-tris (6-methylpyridin-2-yloxy) benzene]
binding to the mutated NLRX1 protein [1]: Loss of binding | expression of Ifng in the whole colon (DSS model of colitis; [3]): reduced | expression of Tnfa in the whole colon (DSS model of colitis; [3]): reduced | maximal observed reduction of disease activity (DSS model of colitis; oral 20 mg/kg once daily, day 6): 50% | number of FOXP3+ regulatory CD4+ T cells (DSS model of colitis; oral 20 mg/kg, colon): did not reduce | reduction of Th1 cells in the colonic lamina propria (DSS model of colitis; [4]): more than 50% | reduction of neutrophils in the colonic lamina propria (DSS model of colitis; [4]): more than 50% | concentrations at which IFNγ+ cells decreased [2]: above 50 nM | concentrations at which IL10+ CD4+ T cells increased [2]: ≥ 50 nM | IFNγ+ cells [2, 5]: Dose dependent decreases | IL-4 producing CD4+ T cells [2, 5]: potently decreased | TNFα producing CD4+ T cells [2, 5]: potently decreased | percentage of IL10+ CD4+ T cells [2, 5]: increased | concentrations at which IL-4 producing CD4+ T cells decreased ([2]; as low as): ≥ 10 nM | concentrations at which TNFα producing CD4+ T cells decreased ([2]; as low as): ≥ 10 nM

Source: patent publication US10676436B2, “NLRX1 ligands” (Landos Biopharma, Inc., priority 2018, dated 2020)
